According to patent publication US20100129910A1, “Cell matrix related compositions and their use for generating embryoid bodies” (priority 2008, published 2010):

B1: nidogen-1: human nidogen-1 linker protein (R&D systems) (protein, UniProt P14543 29-1247, looked up)
Nidogen-1: LSRQELFPFGPGQGDLELEDGDDFVSPALELSGALRFYDRSDIDAVYVTTNGIIATSEPPAKESHPGLFPPTFGAVAPFLADLDTTDGLGKVYYREDLSPSITQRAAECVHRGFPEISFQPSSAVVVTWESVAPYQGPSRDPDQKGKRNTFQAVLASSDSSSYAIFLYPEDGLQFHTTFSKKENNQVPAVVAFSQGSVGFLWKSNGAYNIFANDRESVENLAKSSNSGQQGVWVFEIGSPATTNGVVPADVILGTEDGAEYDDEDEDYDLATTRLGLEDVGTTPFSYKALRRGGADTYSVPSVLSPRRAATERPLGPPTERTRSFQLAVETFHQQHPQVIDVDEVEETGVVFSYNTDSRQTCANNRHQCSVHAECRDYATGFCCSCVAGYTGNGRQCVAEGSPQRVNGKVKGRIFVGSSQVPIVFENTDLHSYVVMNHGRSYTAISTIPETVGYSLLPLAPVGGIIGWMFAVEQDGFKNGFSITGGEFTRQAEVTFVGHPGNLVIKQRFSGIDEHGHLTIDTELEGRVPQIPFGSSVHIEPYTELYHYSTSVITSSSTREYTVTEPERDGASPSRIYTYQWRQTITFQECVHDDSRPALPSTQQLSVDSVFVLYNQEEKILRYALSNSIGPVREGSPDALQNPCYIGTHGCDTNAACRPGPRTQFTCECSIGFRGDGRTCYDIDECSEQPSVCGSHTICNNHPGTFRCECVEGYQFSDEGTCVAVVDQRPINYCETGLHNCDIPQRAQCIYTGGSSYTCSCLPGFSGDGQACQDVDECQPSRCHPDAFCYNTPGSFTCQCKPGYQGDGFRCVPGEVEKTRCQHEREHILGAAGATDPQRPIPPGLFVPECDAHGHYAPTQCHGSTGYCWCVDRDGREVEGTRTRPGMTPPCLSTVAPPIHQGPAVPTAVIPLPPGTHLLFAQTGKIERLPLEGNTMRKTEAKAFLHVPAKVIIGLAFDCVDKMVYWTDITEPSIGRASLHGGEPTTIIRQDLGSPEGIAVDHLGRNIFWTDSNLDRIEVAKLDGTQRRVLFETDLVNPRGIVTDSVRGNLYWTDWNRDNPKIETSYMDGTNRRILVQDDLGLPNGLTFDAFSSQLCWVDAGTNRAECLNPSQPSRRKALEGLQYPFAVTSYGKNLYFTDWKMNSVVALDLAISKETDAFQPHKQTRLYGITTALSQCPQGHNYCSVNNGGCTHLCLATPGSRTCRCPDNTLGVDCIEQK
B2: Wnt3a: morphogen Wnt3a, 10 ng/ml (R&D systems) (protein, UniProt P56704 19-352, looked up)
Protein Wnt-3a: SYPIWWSLAVGPQYSSLGSQPILCASIPGLVPKQLRFCRNYVEIMPSVAEGIKIGIQECQHQFRGRRWNCTTVHDSLAIFGPVLDKATRESAFVHAIASAGVAFAVTRSCAEGTAAICGCSSRHQGSPGKGWKWGGCSEDIEFGGMVSREFADARENRPDARSAMNRHNNEAGRQAIASHMHLKCKCHGLSGSCEVKTCWWSQPDFRAIGDFLKDKYDSASEMVVEKHRESRGWVETLRPRYTYFKVPTERDLVYYEASPNFCEPNPETGSFGTRDRTCNVSSHGIDGCDLLCCGRGHNARAERRREKCRCVFHWCCYVSCQECTRVYDVHTCK

Experiments:
hESC = settings: cited from earlier work
hES cells = assay: ES cell aggregation under different conditions (EB formation by centrifugation, Example 1); assay type: cell-based, human; settings: inducer at 0.1 mg/ml (each protein)
Excerpt: Our investigations have shown that two elements when added to the hESC suspensions are sufficient to allow re-aggregation in the absence of MEF or other feeder cells. These two elements are the extracellular matrix proteins laminin and nidogen (Table 1 and FIG. 1A).
By adding human laminin and nidogen complex into suspensions of pure hES cells, cells or products of non-human origin can be completely avoided in the re-aggregation of hESC and the subsequent generation of EB. Laminin binds to the surface of hES cells through the specific receptor integrin α6 β1. […] Nidogen cross-links large molecules of laminin attached to the hES cell receptors into complex three-dimensional structures. When a laminin-nidogen mix is added to a hES cell suspension, highly viable EBs can be generated from as little as 100 hES cells (FIG. 1B).
Using our method, undifferentiated hES cells are prepared as a single cell suspension, plated (at the desired number of cells) into low attachment round bottom 96 well plates and then re-aggregated to form EBs using centrifugation in the presence of the laminin-nidogen complex. hEBs formed in this way have excellent viability, are of uniform size and contain all three germ layers (ectoderm, mesoderm and endoderm)—that can in turn be induced to generate more differentiated tissue. The simplicity of this method of hEB generation reduces the variability inherent in culture systems that require cellular components (such as MEFs) or other complex media. The simplicity of the system also facilitates the testing of variables that affect differentiation of hEB into different tissue types and improves the quantitation of any effects seen. This system may also be used for generation of chimeric EBs when different cell types (e.g., hES cells transduced with fluorescent tag can be mixed with non-transduced hES cells and re-aggregated into one EB with subsequent tracking of progenies arising from the labeled cells.

hESC lines H1 and H9 = assay: hESC re-aggregation and EB formation, MEF-free modified spin EB method (Example 2); assay type: cell-based, human
Experimental: To generate MEF-free EBs, a modification of the “spin EB” method was used (8, 9). Colonies of H1 and H9 hESC (WiCell Inc) (passage 36-50) were cut into uniformed sized pieces using StemProEZPassage tool, transferred onto 6-well plates coated for 1 hour with Matrigel (growth factor reduced, no phenol red; BD Bioscience), and cultured in MEF-conditioned hESC media supplemented with 4 ng/ml FGF2. Pre-culture on Matrigel increases aggregation capacity of hESC (data not shown). After 24 hours, colonies were digested with Tryple Select into a single cell suspension, incubated with SSEA4 antibody, and SSEA4 positive cells sorted with FACS as described above. Before the sorting step 2-3% of the cells in suspension were represented by MEFs and 97-98% by hESC. After sorting, purity of hESC in the preparation was >99.9% as was measured with SSEA4 staining by FACS. These purified hESC were centrifuged at 1400 RPM and the resulting pellet was resuspended in previously described differentiation media, transferred into low attachment round-bottom 96 well culture plates (Nunc, Rochester, N.Y.) and centrifuged at 1400 RPM for 7 min with or without inducers of aggregation. To test the effects on cell aggregation, a mixture of ECMs in the form of Matrigel (5, 25, 100, 200, μg/ml) a solubilized basement membrane preparation extracted from the Engelbreth-Holm-Swarm (EHS) mouse sarcoma; murine laminin-111 and nidogen-1 complex (5, 25, 100, 200 μg/ml) from EHS sarcoma; or purified human collagen IV (1, 5, 25, 50 μg/ml) (all from BD Bioscience); human laminin-511 (1,5, 25, 50 μg/ml) (Sigma-Aldrich) and human nidogen-1 (1,5, 25, 50 μg/ml) (R&D systems) were added to the cell suspension prior to centrifugation. For directed differentiated of the EBs, differentiation media was supplemented with human vascular endothelial growth factor (VEGF), FGF2, bone morphogenic protein 4 (BMP4), or Wnt3a (all at 10 ng/ml; R&D systems) or FCS (Omega Scientific Inc. Tarzana, Calif.), prior to the final centrifugation step dependent upon experimental design.
Lower concentrations were not sufficient to aggregate all cells in the well. Higher concentrations of Matrigel increased viscosity and blocked efficient pellet formation during centrifugation.
To further dissect the mechanisms of hESC aggregation, the key ECM proteins were tested individually at a range of concentrations with regards to their capacity to assemble dispersed hESC into EBs. […] Thus, the presence of both laminin (either 111 or 511) and nidogen-1 was required for hESC aggregation.

LN-EBs from hESC = assay: Germ layer differentiation of LN-EBs (immunohistochemistry for nestin, CD34, alpha-fetoprotein); assay type: cell-based, human
Experimental: FIG. 4: Generation of ectodermal, mesodermal and endodermal derivatives in the “LN-EB” system. “LN-EBs” were generated with the laminin-nidogen complex and in the presence of media designed for specific germ layer differentiation. A. For induction of ectodermal derivatives, serum-free media was supplemented with Wnt3a (10 ng/ml); B. Addition of BMP4, FGF2, VEGF (all 10 ng/ml) to serum-free medium induced formation of endodermal and mesodermal derivatives. C. Addition of 10% FCS, with no exogenous growth factors, induced synchronous generation of the all three germ layers. D. Standard EBs cultured in medium supplemented with 10% FCS. E. Control EBs cultured in serum-free media with no exogenous growth factors. F. No primary antibody control of immunostaining. Immunohistochemical detection of ectoderm, mesoderm and endoderm formation was assessed using antibodies for nestin (left column), CD34 (middle column) and alpha-fetoprotein (right column) respectively. Antigen expression is shown in brown color. Nuclei are stained with hematoxylin (blue). Magnification: 200×. […]
To generate MEF-free EBs, a modification of the “spin EB” method was used (8, 9). […] After sorting, purity of hESC in the preparation was >99.9% as was measured with SSEA4 staining by FACS. […]

[1] = added individually as single agents at a range of concentrations

Molecule | Aggregation (hES cells) | hESC aggregation (hESC lines H1 and H9; [1]) | also measured
C[C@@H](N)[C@H]1CC[C@H](C(=O)Nc2ccncc2)CC1 [Y-27632] |  |  | aggregation and EB formation of dissociated hESC (hESC; 10 μM): aggregate and form EBs; survival of hESC after dissociation to single cells (hESC): promote the survival
Collagen IV: extracellular matrix protein collagen IV | − |  | 
Fibronectin | − |  | 
Laminin | + (+ means very little aggregation) |  | 
human collagen-IV: purified human collagen IV (BD Bioscience) [reference compound] |  | No aggregation | 
human laminin-511 complexed with human nidogen-1: ultrapure human laminin-511 complexed with human nidogen-1, ratio laminin to nidogen 9:1 |  |  | hESC aggregation (hESC lines H1 and H9; laminin-511 9-22.5 μg/ml with nidogen-1 1-2.5 μg/ml, ratio laminin to nidogen 9:1): robust aggregation
human laminin-511: human laminin-α5β1γ1 heterotrimer (Sigma-Aldrich) |  | minimal aggregation | 
murine laminin-111-nidogen-1 complex: murine laminin-111 and nidogen-1 complex from EHS sarcoma |  |  | hESC aggregation (hESC lines H1 and H9; 100-200 μg/ml, MEF-free single cell suspension, after centrifugation): robust aggregation
B1 |  | minimal aggregation | 
B2 |  |  | germ layer derivatives suppressed in LN-EBs (LN-EBs from hESC; serum-free medium, growth factors 10 ng/ml): formation of meso-endodermal derivatives labeled with CD34 and alpha-fetoprotein respectively was almost completely abolished; germ layer derivatives formed in LN-EBs (LN-EBs from hESC; supplement in medium (growth factors 10 ng/ml serum-free, or 10% FCS), day 15): neuro-ectodermal epithelial cells that expressed nestin and formed solid neural tube-like structures were efficiently induced
